This series is described as follows: gradient 5% acetonitrile 3 min, to 50% in 2 min, to 85% in 15 min, held 3 min, 100 µL/min. Conditions: column: Zorbax Extend-C18 2.1 x 50 mm; eluents: water / acetonitrile, 0.1% formic acid. In short, it runs like this: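 Retention times come from adduct peaks that were picked computationally and then checked by hand. The standards, pure and pooled in mixtures of ~100 molecules, were run on a Zorbax Extend-C18 column (2.1 × 50 mm, 1.8 μm) at 100 μL/min with water and acetonitrile, each with 0.1% formic acid. Detection was by quadrupole time-of-flight mass spectrometry in positive and negative ionization mode, with a dead volume of 40 μL and a dwell volume of 900 μL.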
The compound `COc1ccc(S(=O)(=O)N2CCCOC2CNC(=O)C(=O)NC2CCCCC2)cc1` (stereo not drawn) had an RP-LC retention time of 822 s.

`CC(C)n1cnc2cc(CNC(=O)c3c(F)cccc3Cl)ccc21` returned an RP-LC retention time of 617 s.

`COc1cccc(Cn2nc3ccc(S(=O)(=O)N4CCC(C)CC4)cn3c2=O)c1` came in with an RP-LC retention time of 900 s.

In turn, `COc1ccc(OC)c(CNC(=O)C2CCN(Cc3cn(C)c4ccc(Cl)cc34)CC2)c1` showed an RP-LC retention time of 717 s.

In turn, `CC1CCN(C(=O)C2CCN(c3cncnc3N(C)C)CC2)CC1` returned an RP-LC retention time of 624 s.

`CCOc1ccc(-c2cc(SCc3cccnc3)ncn2)cc1` registered an RP-LC retention time of 690 s.

For the compound `CN1CCN(c2nc3c(c(Nc4ccccc4)n2)C(=O)CC(C)(C)C3)CC1`, the RP-LC retention time is 713 s.

On to `COc1ccc(-c2noc(C3CCCN3C(=O)c3ccco3)n2)cc1OC` (stereo not drawn), for which the RP-LC retention time came out at 780 s.

In turn, `CCCN(C(=O)c1cccc(NC(=O)[C@H]2[C@@H]3C[C@@H]4[C@H]2C(=O)O[C@@H]4C3)c1)c1ccccc1F` showed an RP-LC retention time of 853 s.

`CN1C(=O)c2cc(C(=O)NCCC3=CCCCC3)nn2CC1(C)C(=O)NCc1ccc(F)cc1` (stereo not drawn): the RP-LC retention time was found to be 811 s.

Consider `O=C(c1nnn(-c2ccccc2Cl)c1-c1ccncc1)N1CCCC1`, for which the RP-LC retention time was found to be 716 s.

Compound `COc1ccc(NC(C)=O)cc1NC(=O)C1CC(=O)N(c2n[nH]c3cccc(F)c23)C1` (stereo not drawn) returned an RP-LC retention time of 634 s.

Take `O=c1ccc(-c2cccc(Cl)c2)nn1CCc1nc(-c2ccc3c(c2)OCO3)no1`: the RP-LC retention time is 999 s.

`Cc1cnc(CNC(=O)c2c(=O)c3ccc(N4CCCN(C)CC4)nc3n3c2sc2ccccc23)cn1`: the RP-LC retention time amounted to 681 s.

`CN(C)CCCNC(=O)C1CCN(c2nc3ccc(-c4ccc(F)cc4)nc3s2)CC1` showed an RP-LC retention time of 686 s.

In turn, `CCCNC(=O)c1nc(Nc2ccc(F)cc2)c2ccccc2n1` registered an RP-LC retention time of 746 s.

As to `CN(C)CCNC(=O)C1CCCN(c2ccc(=O)n(-c3cccc(Cl)c3)n2)C1` (stereo not drawn), the RP-LC retention time was determined as 929 s.

`Cc1cc(N2CCCC2)nc(N2CCN(C(=O)CCC3CCCCC3)CC2)n1` registered an RP-LC retention time of 825 s.

`NS(=O)(=O)c1cccnc1Nc1ccc2c(c1)OCCO2` returned an RP-LC retention time of 735 s.

Compound `COc1ccc2[nH]c(=O)c(CCC(=O)NCCCN3CCCCC3)cc2c1` returned an RP-LC retention time of 586 s.

`CCSc1nnc(-c2nn(C)c3c2CN(S(=O)(=O)c2ccc4c(c2)OCCO4)CC3)n1CC` displayed an RP-LC retention time of 895 s.

As to `COc1ccc(CN2CC[C@]3(CO)CN(Cc4ccccc4)C[C@@H]3C2)c(Cl)c1OC`, the RP-LC retention time was determined as 579 s.

The compound `CC(C)n1nnc2ccc(-c3noc(CNC(=O)c4ccccc4)n3)cc21` came in with an RP-LC retention time of 825 s.

In turn, `CCOc1ccc(-n2cc(C(=O)OCC(=O)OC)c3ccccc3c2=O)cc1` displayed an RP-LC retention time of 1000 s.

`CS(=O)(=O)N1CCCc2cc(C(=O)N3CCC(C(N)=O)CC3)ccc21` returned an RP-LC retention time of 604 s.

`O=C(c1cc2ccccc2[nH]1)N1CCCC1` had an RP-LC retention time of 794 s.

The compound `NC(=O)c1nnn(Cc2cccc([N+](=O)[O-])c2)c1N` returned an RP-LC retention time of 616 s.

In turn, `O=C(CSc1ccc(N2CCCC(C(=O)NC3CC3)C2)nn1)NCc1ccc(C(F)(F)F)cc1` (stereo not drawn) showed an RP-LC retention time of 694 s.

In the case of `CN(C)C(=O)c1cn(-c2ccc(-c3nc(C(C)(C)C)no3)cn2)cn1`, the RP-LC retention time came out at 808 s.

As for `COc1cccc(CNC(=O)C2(C)CCCN(C(=O)Nc3ccc(OC)c(OC)c3)C2)c1` (stereo not drawn), the RP-LC retention time came to 746 s.

On to `c1ccc(-c2csc(Nc3cccnc3)n2)cc1`, for which the RP-LC retention time was found to be 674 s.

For `O=C(Nc1ccc(N2CCOCC2)cc1)c1cn2c(n1)COCC2`, the RP-LC retention time stood at 600 s.

The compound `CCC(C)NC(=O)C1CCN(S(=O)(=O)c2ccc3c(c2)CCCC(=O)N3)CC1` (stereo not drawn) came in with an RP-LC retention time of 682 s.

In turn, `Cn1cc(S(=O)(=O)NCc2cccs2)c(=O)n(C)c1=O` had an RP-LC retention time of 635 s.

`Cc1cnc(C(=O)NC2C[C@H]3CC[C@@H](C2)N3C(=O)c2cnc(C)cn2)cn1` (stereo partly drawn): the RP-LC retention time was 584 s.

With `O=C(Cn1ncc2c(c1=O)N(C1CC1)C(=O)CS2)NCCc1ccc(Cl)cc1`, the RP-LC retention time is 755 s.

Turning to `O=C(Cn1cccc1-c1nnc(-c2ccccc2)o1)Nc1ccc(Cl)cc1`, the RP-LC retention time was determined as 1030 s.

The compound `Cn1c(=O)c(C(=O)N2CCN(c3ccccn3)CC2)nn(-c2ccc(Cl)cc2)c1=O` registered an RP-LC retention time of 663 s.

On to `COc1ccc(C2C(C(=O)N3CCCCC3)=C(C)NC3=C2C(=O)CC(C)(C)C3)cc1OC` (stereo not drawn), for which the RP-LC retention time stood at 675 s.

Consider `Cc1ccc(-c2cn3ccn(-c4ccc(F)cc4)c(=O)c3n2)c(C)c1`, for which the RP-LC retention time came out at 873 s.

`Cc1ccc(NC(=O)CN2CCC(C(=O)N3CCN(C(=O)c4ccco4)CC3)CC2)cc1` had an RP-LC retention time of 569 s.

As to `CCc1cc(=O)n(CC(=O)Nc2ccc(Cl)cc2)c(N)n1`, the RP-LC retention time was determined as 618 s.

On to `Cc1ccc(CCNC(=O)c2cc3n(n2)CC(C)(C(=O)NC2CCCCC2)N(C)C3=O)cc1` (stereo not drawn), for which the RP-LC retention time worked out at 844 s.

As for `CCCN(C)c1nccn2c(=O)n(CC(=O)Nc3cccc(C(F)(F)F)c3)nc12`, the RP-LC retention time was 753 s.

In turn, `Cn1ncc2c3ccccc3n(CC(=O)NC3CCN(Cc4ccccc4)CC3)c2c1=O` gave an RP-LC retention time of 624 s.

On to `Cc1cc(C(=O)N2CCCCC2)c2c(=O)n(Cc3ccc4nonc4c3)c(=O)n(C)c2n1`, for which the RP-LC retention time was determined as 902 s.

`CCOCCCNC(=O)C1=NN(c2ccc(F)cc2)c2ccc(F)cc2S1(=O)=O` registered an RP-LC retention time of 885 s.

`N#Cc1c(N)nc(SCc2csc(-c3ccc(Cl)cc3)n2)c(C#N)c1-c1ccc(OCCO)cc1` returned an RP-LC retention time of 1130 s.

Take `CCC1Oc2ccc(S(=O)(=O)N3CCC(C(=O)Nc4cccc(OC)c4)CC3)cc2NC1=O` (stereo not drawn): the RP-LC retention time was 854 s.

The compound `Cc1ccccc1Nc1c(-c2ccc(N(C)C)cc2)nc2ccc(Cl)cn12` came in with an RP-LC retention time of 815 s.

`O=C(NC1CCN(c2cc(-c3ccccc3)[nH]n2)C1)c1cc2ccccc2[nH]1` (stereo not drawn) gave an RP-LC retention time of 739 s.

On to `CC(=O)N1CCc2cc(S(=O)(=O)CCC(=O)N3CCC(CCOc4ccccc4)C3)ccc21` (stereo not drawn), for which the RP-LC retention time amounted to 822 s.

Compound `O=C(CCn1cnc2cc(S(=O)(=O)N3CCCC3)ccc21)N1CCN(c2ccccn2)CC1` displayed an RP-LC retention time of 576 s.

As to `COc1cc(NS(=O)(=O)c2ccc(-c3nnc(C4CCC4)o3)o2)cc(OC)c1`, the RP-LC retention time turned out to be 886 s.

Compound `COc1ccc(C2Cn3nnc(-c4nc(C(C)C)no4)c3CO2)cc1` (stereo not drawn) yielded an RP-LC retention time of 936 s.

For the compound `CN(C)c1nc(N)c(C(=O)N=C(N)N)nc1Cl`, the RP-LC retention time stood at 661 s.

`O=C(CCNc1c(-c2cccc(F)c2)nc2cnccn12)NCc1ccc(F)cc1F` gave an RP-LC retention time of 776 s.

`N#Cc1cccc(-c2cn3c(n2)N(C(=O)c2ccco2)CCC3)c1` gave an RP-LC retention time of 645 s.

The compound `CCCCN(C)C(=O)Cn1c(C(C)NC(=O)c2ccco2)nc2ccccc21` (stereo not drawn) displayed an RP-LC retention time of 655 s.

In turn, `CCC(C)C(NC(=O)c1cccc(C)c1)C(=O)Nc1nc2ccccc2[nH]1` (stereo not drawn) had an RP-LC retention time of 765 s.

`CC(NC(=O)C1(c2ccc(NS(C)(=O)=O)cc2)CCCCC1)c1ccccc1` (stereo not drawn) gave an RP-LC retention time of 926 s.

In turn, `O=C(Nc1cc(-c2cccc(F)c2)no1)C1CCCN(c2ncnc3c2nc2n3CCCCC2)C1` (stereo not drawn) came in with an RP-LC retention time of 991 s.

`CC(C)(C)c1ccc(S(=O)(=O)N2CCC(C(=O)NCc3cscn3)CC2)cc1` showed an RP-LC retention time of 869 s.

Consider `COc1ccc(Nc2nc(N3CCN(C)CC3)nc3c2C(=O)CCC3)cc1`, for which the RP-LC retention time was determined as 645 s.

Compound `CC(C)CCNC(=O)CSc1nc(N2CCc3ccccc3C2)nc2ccccc12` had an RP-LC retention time of 917 s.

`Cc1cc(N(C)C)n2nc(-c3ccc(C(C)(C)C)cc3)nc2n1` gave an RP-LC retention time of 927 s.

For `CC(=O)Nc1nsc(N2CCC(C(=O)N3CCN(c4cccc(C)c4C)CC3)CC2)n1`, the RP-LC retention time amounted to 806 s.

`CCN1CCC[C@H]1CNC(=O)c1c(O)c(Cl)cc(Cl)c1OC` had an RP-LC retention time of 777 s.

Turning to `Cc1ccc(-c2cn3c(CC(=O)NCc4ccc5c(c4)OCO5)csc3n2)cc1C`, the RP-LC retention time was 794 s.

Turning to `COc1ccc(NC(=O)C2CCCN(c3cnc4nccnc4c3)C2)cc1Cl` (stereo not drawn), the RP-LC retention time amounted to 746 s.

In turn, `CC(C)c1noc(-c2ccc(-n3cnc(C(=O)NC4CCCC4)c3)nc2)n1` gave an RP-LC retention time of 915 s.

For the compound `Cc1ccc(CNC(=O)CSc2nc3nc(C)cc(C)n3n2)cc1`, the RP-LC retention time was determined as 697 s.

`O=C(c1cn2nc(Cl)ccc2n1)N1CCN(c2ccc(F)cc2)CC1` yielded an RP-LC retention time of 826 s.

The compound `N#Cc1ccc(C(=O)NC(c2ccccc2)c2nnc(N3CCCC3)o2)cc1` (stereo not drawn) came in with an RP-LC retention time of 765 s.

Compound `CCS(=O)(=O)Nc1ccc(C2=NN(C(=O)c3ccco3)C(c3cccs3)C2)cc1` (stereo not drawn) came in with an RP-LC retention time of 764 s.

`Cn1c(=O)n(C)c2cc(CNCCc3ccc(Cl)cc3)ccc21` gave an RP-LC retention time of 630 s.

`COc1ccc(-c2nc(CNC(=O)c3coc(-c4ccccc4)n3)no2)cc1` displayed an RP-LC retention time of 950 s.

Compound `Cc1cc2nn(CC(=O)NC3CCCCC3)c(=O)n2c(-c2ccccc2)n1` had an RP-LC retention time of 764 s.
